From PMC7190722, “Brain distribution of geissoschizine methyl ether in rats using mass spectrometry imaging analysis” (Scientific Reports, 2020)
Several values for one entry are separate records, joined by “and”; a condition that tells them apart may be missing. Identical values can stand only once.

Tests used:
[1] = Brain distribution by DESI-MSI analysis after intravenous GM injection; assay type: in vivo, rat; details: for concentration at 0.25 h: rat, intravenous, 5 mg/kg
Description: GM (5 mg/kg) or vehicle (70% DMSO; 0.6 mL/kg) was injected into the tail vein of rats fasted for approximately 16 h. […] Blood samples were centrifuged at 1,700 × g and 4 °C for 15 min to obtain the plasma. The brain of each animal was immediately removed and weighed after blood collection and frozen with liquid nitrogen. The frozen brains were used for making serial sagittal thin sliced sections (thickness 25 μm, coordinate: approximately 3.4 mm lateral from the bregma) using a […][…] cryostat (Leica Microsystems, […], Germany). Some of the serial sections mounted on conventional glass slides were used for H&E staining to confirm the location of the brain region in the slice. In MALDI-MSI analysis, some sections were mounted on indium tin oxide-coated slides ([…]., Osaka, Japan) based on previous reports[35],[36] to obtain higher sensitivity. In […] analysis, some sections were mounted on conventional glass slides. These tissue sections mounted on the slides were dried in a desiccator at room temperature for 10 min for MALDI-MSI analysis or 1 h for […] analysis. In the […] analysis, the MS/MS analysis was further performed to identify the signals of GM or its hydroxylated metabolite. The MS and MS/MS analyses for […] were performed using a Xevo G2-XS Q-Tof system (Waters, Milford, MA, USA) with an Omni Spray Ion Source 2-D (Prosolia, Indianapolis, IN, USA). In both analyses, methanol/water (98:2)solution was flowed into a capillary at a 2 μL/min flow rate. The nebulizing gas pressure was set to 0.4 MPa, the capillary voltage to 5 kV, the source temperature to 100 °C, the sampling cone to 30 V, and the scan time to 0.986 sec. In the MS analysis, the collision energy was set to 4 eV, and mass spectra were acquired in target enhancement mode, which was set to m/z 367.2. In the MS/MS analysis, the collision energy was set to 20 eV, and mass spectra were acquired in target enhancement mode, which was set to m/z 144.2. Mass resolution and spatial resolution were >20,000 and 200 μm in the MS and MS/MS analyses. The protonated ions of GM ([M + H]^+: m/z 367.2) and HM ([M + H]^+: m/z 383.2) in MS and the specific fragment ions of GM (m/z 144.2) and HM (m/z 160.2) in MS/MS were detected in positive ion mode. The intensities of GM and HM detected in the DESI-MS analysis were visualized using high-definition imaging (HDI) software (Waters, Milford, MA, USA). Normal intact brains were homogenized without adding a solvent using a T-10 basic Ultra-Turrax homogenizer (IKA, Staufen, Germany) to prepare a tissue-based calibration curve for quantifying GM. For brain homogenates, various concentrations of standard GM solution (final concentration: 6.25, 12.5, and 25.0 μg/g brain) or vehicle (methanol) as a control were added and rapidly frozen. Frozen sections (thickness 25 μm) of the homogenates spiked with standard GM were made using a […][…] cryostat (Leica Microsystems). Regional intensities of GM (m/z 367.2) and a standard endogenous molecule (m/z 366.95) in brain tissue slices and homogenate slices were evaluated by the region of interest analysis using HDI software (Waters). The GM signal intensity was expressed as the average of the relative intensity ratio to the standard endogenous molecule per […] contained in the region of interest. The regional brain concentration of GM was calculated using the tissue-based calibration curve (Fig. 3D-2).

normal rat brain slices = tested on: normal rat brain slices; design: method as in PMID 25456433, PMID 28377723; details: [^3H]GM directly exposed to normal rat brain slices; cited from earlier work
[2] = Brain distribution by MALDI-MSI analysis after intravenous GM injection; assay type: in vivo, rat; details: 0.25 h after 5 mg/kg GM i.v., sagittal sections
Description: GM (5 mg/kg) or vehicle (70% DMSO; 0.6 mL/kg) was injected into the tail vein of rats fasted for approximately 16 h. […] Blood samples were centrifuged at 1,700 × g and 4 °C for 15 min to obtain the plasma. The brain of each animal was immediately removed and weighed after blood collection and frozen with liquid nitrogen.
The frozen brains were used for making serial sagittal thin sliced sections (thickness 25 μm, coordinate: approximately 3.4 mm lateral from the bregma) using a Leica CM3050S cryostat (Leica Microsystems, Wetzlar, Germany). Some of the serial sections mounted on conventional glass slides were used for H&E staining to confirm the location of the brain region in the slice. […]
The MALDI-MSI analysis was performed on brain slice specimens sprayed with a matrix solution (40 mg/mL 2,5-dihydroxybenzoic acid) dissolved in 50% methanol using a TM-sprayer (HTX Technologies, Chapel Hill, NC, USA). […] The targeted protonated molecule GM ([M + H]^+: m/z 367.2) was detected in positive ion mode under a laser power setting of 70%, 500 laser shots, and the continuous accumulation of selected ions mode set to ON at m/z 360 ± 50. […] GM intensity detected by the MALDI-MS analysis was visualized using FlexImaging software (Bruker Daltonics).

[3] = design: method as in PMID 23813572, PMID 30741064; details: plasma and brain, after oral YKS administration to rats; cited from earlier work
[4] = design: method as in PMID 21442303; details: cultured cells; cited from earlier work
[5] = Plasma concentrations of GM and HM-1/2 by LC-MS/MS after intravenous GM injection; assay type: in vivo, rat
Description: GM (5 mg/kg) or vehicle (70% DMSO; 0.6 mL/kg) was injected into the tail vein of rats fasted for approximately 16 h. […] Blood samples were centrifuged at 1,700 × g and 4 °C for 15 min to obtain the plasma. The brain of each animal was immediately removed and weighed after blood collection and frozen with liquid nitrogen. On the day of analysis, frozen plasma from GM-treated rats was thawed at room temperature, and 25 µL of the plasma was mixed with equal volumes of methanol and an IS vincamine (1 ng/mL) and 150 μL of ethyl acetate. To prepare the calibration curve, blank plasma and various concentrations of working solution (final plasma concentration: 0.08–2 µg/mL) were used instead of methanol and GM-treated plasma. The mixture was centrifuged at 7,000 × g and 4 °C for 5 min. The supernatant was dried under a stream of nitrogen gas. The dried residue was dissolved in 60 μL of the initial mobile phase of LC, and then, a 5-μL aliquot was injected into the LC-MS/MS system composed of an Agilent 1290 LC (Agilent Technologies, Santa Clara, CA, USA) and a TripleQuad6500 MS/MS (SCIEX, Framingham, MA, USA) for measuring GM and its hydroxylated forms. The analytical conditions for LC-MS/MS were set according to previously reported methods with minor modifications[10],[15]. The protonated ions ([M + H]^+) of GM (m/z 367.0), HM-1/2 isomers (m/z 383.3), and vincamine (m/z 355.3) in Q1 (the first MS) or their specific fragment ions (GM: m/z 144.1, HM-1/2 isomers: m/z 160.2, vincamine: m/z 337.1) in Q3 (the second MS) were selected and detected by SRM using positive ion mode. Although a qualifier ion was not monitored in their analysis, the specificities of GM, HM-1/2 and vincamine in rat plasma were already confirmed by previous studies[10],[14]. The calibration curve for quantification of plasma GM concentrations was prepared using Analyst software (version 1.6.2, AB SCIEX). The plasma concentrations of HM-1/2 were expressed as relative peak area ratios of vincamine (IS) because there are currently no standard products for measuring these compounds.

[6] = Amygdala, 0.25 h, individual animals
[7] = Cerebellum, 0.25 h, individual animals
[8] = Fourth ventricle, 0.25 h, individual animals
[9] = Frontal lobe, 0.25 h, individual animals
[10] = Hippocampus, 0.25 h, individual animals
[11] = Lateral ventricle, 0.25 h, individual animals
[12] = Occipital lobe, 0.25 h, individual animals
[13] = Striatum, 0.25 h, individual animals
[14] = Thalamus, 0.25 h, individual animals

CC=C1CN2CCc3c([nH]c4ccccc34)C2CC1C(=COC)C(=O)OC (stereo not shown) [GM, Geissoschizine methyl ether]
GM ion signal in brain, DESI-MSI image ([1]; 0.25 h after 5 mg/kg GM i.v., sagittal sections): a diffuse GM ion signal was observed throughout the brain parenchyma | Calculated GM concentration [1, 6]: 1.0 µg/g and 2.2 µg/g and 1.2 µg/g | Ion intensity of GM per pixel in ROI [1, 6]: 2.4 ×10^4 and 3.7 ×10^4 and 9.7 ×10^4 | Ratio of GM/endogenous standard molecule [1, 6]: 0.8 and 1.8 and 1.0 | Calculated GM concentration [1, 7]: 0.8 µg/g and 2.0 µg/g and 1.1 µg/g | Ion intensity of GM per pixel in ROI [1, 7]: 4.2 ×10^4 and 2.4 ×10^4 and 8.7 ×10^4 | Ratio of GM/endogenous standard molecule [1, 7]: 0.7 and 1.7 and 0.9 | GM intensity in the parenchyma ([1]; DESI-MSI, 1 and 4 h after 5 mg/kg GM i.v.): almost disappeared | intracerebroventricular GM intensity ([1]; DESI-MSI, 0.25 h, also detected at 1 and 4 h): higher than the intensity in other parenchymal areas | Calculated GM concentration [1, 8]: 2.3 µg/g and 2.0 µg/g | Ion intensity of GM per pixel in ROI [1, 8]: 4.0 ×10^4 and 3.9 ×10^4 and 26.5 ×10^4 | Ratio of GM/endogenous standard molecule [1, 8]: 1.0 and 1.9 and 1.7 | Calculated GM concentration [1, 9]: 1.0 µg/g and 2.6 µg/g and 1.2 µg/g | Ion intensity of GM per pixel in ROI [1, 9]: 2.9 ×10^4 and 5.4 ×10^4 and 9.1 ×10^4 | Ratio of GM/endogenous standard molecule [1, 9]: 0.8 and 2.2 and 1.0 | Calculated GM concentration [1, 10]: 2.3 µg/g and 1.1 µg/g and 0.8 µg/g | Ion intensity of GM per pixel in ROI [1, 10]: 4.7 ×10^4 and 10 ×10^4 and 2.0 ×10^4 | Ratio of GM/endogenous standard molecule [1, 10]: 1.9 and 0.9 and 0.7 | Calculated GM concentration [1, 11]: 1.4 µg/g and 4.5 µg/g and 2.9 µg/g | Ion intensity of GM per pixel in ROI [1, 11]: 3.0 ×10^4 and 8.3 ×10^4 and 21.2 ×10^4 | Ratio of GM/endogenous standard molecule [1, 11]: 1.2 and 3.8 and 2.4 | Calculated GM concentration [1, 12]: 1.1 µg/g and 2.7 µg/g and 1.3 µg/g | Ion intensity of GM per pixel in ROI [1, 12]: 2.9 ×10^4 and 4.8 ×10^4 and 10.5 ×10^4 | Ratio of GM/endogenous standard molecule [1, 12]: 0.9 and 2.3 and 1.1 | Calculated GM concentration [1, 13]: 0.8 µg/g and 2.6 µg/g and 1.1 µg/g | Ion intensity of GM per pixel in ROI [1, 13]: 1.9 ×10^4 and 3.9 ×10^4 and 7.2 ×10^4 | Ratio of GM/endogenous standard molecule [1, 13]: 0.7 and 2.2 and 0.9 | Calculated GM concentration [1, 14]: 0.7 µg/g and 2.4 µg/g and 1.1 µg/g | Ion intensity of GM per pixel in ROI [1, 14]: 1.7 ×10^4 and 4.5 ×10^4 and 8.8 ×10^4 | Ratio of GM/endogenous standard molecule [1, 14]: 0.6 and 2.0 and 0.9 | concentration at 0.25 h ([1]; brain (fourth ventricle), Fourth ventricle, 0.25 h, individual animals, read-out: Calculated GM concentration): 1200 ng/g | concentration at 0.25 h ([1]; 0.25 h after 5 mg/kg GM i.v., cerebral cortex, hippocampus, striatum, amygdala, thalamus, cerebellum, lateral ventricle, read-out: regional brain GM concentration range): 1300 to 2900 ng/g | binding to brain slices (normal rat brain slices): specifically bound to various regions appearing on the surface of brain slices | GM ion signal in brain, MALDI-MSI image [2]: a diffuse GM ion signal was observed throughout the brain parenchyma | tmax [3]: 0.5 h | BBB permeability [4]: comparatively high | time course of plasma GM concentration ([5]; 0.25-4 h after 5 mg/kg GM i.v., rat): rapidly decreased in a time-dependent manner over 4 h | plasma concentration relative to maximum concentration after oral YKS ([5]; 0.25 h after 5 mg/kg GM i.v. vs maximum concentration 1 h after oral 1 g/kg YKS): approximately 500 times | distribution volume ([5]; one-compartment analysis, 5 mg/kg GM i.v., rat): 4.4 L/kg | concentration at 0.25 h ([5]; plasma, iv, 0.25 h postinjection, 5 mg/kg GM i.v., rat): 1070 ng/mL | half-life ([5]; plasma, iv, one-compartment analysis, 5 mg/kg GM i.v., rat, read-out: apparent elimination half-life (converted)): 1.8 h | k el ([5]; plasma, iv, one-compartment analysis, 5 mg/kg GM i.v., rat, read-out: elimination rate constant (converted)): 0.000111 s⁻¹ | clearance ([5]; plasma, iv, one-compartment analysis, 5 mg/kg GM i.v., rat, read-out: total clearance (converted)): 28.3 mL/min/kg
